Laboratory results from ChEMBL document CHEMBL5038624, “Construction and activity evaluation of novel dual-target (SE/CYP51) anti-fungal agents containing amide naphthyl structure” (Eur J Med Chem, 2022).
≈ marks a conversion by molar mass, not a printed value. Calls of active or inactive are those of the source. The calls are words filed in the database; no cut-off is given here.

Tests used:
Candida albicans [1] = test: Induction of apoptosis against Candida albicans ATCC SC5314 assessed as mild apoptotic cells measured after 48 hrs by Annexin V-FITC/propidium iodide staining based flow cytometry (Rvb =0.29 %); assay type: functional
[2] = Toxicity in mouse infected with Candida albicans ATCC SC5314 assessed as effect on lung at 4 mg/kg,ip administrated every 2 days for 14 days by hematoxylin-eosin staining based assay; assay type: organism-based; settings: in vivo, 336 h, time 14 day
Candida albicans [3] = test: Antifungal activity against Candida albicans strain 901 assessed as reduction in fungal growth incubated for 72 hrs by CLSI protocol based broth microdilution method; assay type: functional
Mus musculus = test: Antifungal activity against Candida albicans ATCC SC5314 infected in mouse assessed as increase in body weight at 4 mg/kg,ip administrated every 2 days for 14 days; assay type: functional, organism-based; settings: time 14.0 day
Candida albicans [4] = test: Antifungal activity against Candida albicans ATCC SC5314 assessed as decrease in fungal cell density by fluorescence microscopy; assay type: functional, organism-based
Candida albicans [5] = test: Inhibition of SE/CYP51 in Candida albicans ATCC SC5314 assessed as eburicol level incubated for 48 hrs by LC/MS analysis; parameters: scale not given: the % may be the effect or the level left
Candida tropicalis = test: Antifungal activity against Candida tropicalis ATCC 1369 assessed as reduction in fungal growth incubated for 72 hrs by CLSI protocol based broth microdilution method; assay type: functional
Candida albicans [6] = test: Inhibition of SE/CYP51 in Candida albicans ATCC SC5314 assessed as lanosterol level incubated for 48 hrs by LC/MS analysis; parameters: scale not given: the % may be the effect or the level left
[7] = target: Lanosterol 14-alpha demethylase (Candida albicans (strain SC5314 / ATCC MYA-2876) (Yeast), UniProt P10613); test: Inhibition of CYP51 in Candida albicans ATCC SC5314 measured after 30 mins by HPLC analysis
Candida albicans [8] = test: Antifungal activity against Candida albicans ATCC SC5314 infected in mouse assessed as decrease in fungal infection at 4 mg/kg,ip administrated every 2 days for 14 days; assay type: functional, organism-based; settings: time 14.0 day
Aspergillus fumigatus = test: Antifungal activity against Aspergillus fumigatus KM8001 assessed as reduction in fungal growth incubated for 72 hrs by CLSI protocol based broth microdilution method; assay type: functional
[9] = Toxicity in mouse infected with Candida albicans ATCC SC5314 assessed as effect on kidney at 4 mg/kg,ip administrated every 2 days for 14 days by hematoxylin-eosin staining based assay; assay type: organism-based; settings: in vivo, 336 h, time 14 day
Candida albicans [10] = test: Antifungal activity against Candida albicans strain 904 assessed as reduction in fungal growth incubated for 72 hrs by CLSI protocol based broth microdilution method; assay type: functional
[11] = Inhibition of SE in Candida albicans ATCC SC5314 measured after 30 mins by HPLC analysis
[12] = Toxicity in mouse assessed as effect on alanine transaminase level; settings: in vivo
Pichia kudriavzevii = test: Antifungal activity against Candida krusei ATCC 6258 assessed as reduction in fungal growth incubated for 72 hrs by CLSI protocol based broth microdilution method; assay type: functional
Nakaseomyces glabratus = test: Antifungal activity against Candida glabrata ATCC 0001 assessed as reduction in fungal growth incubated for 72 hrs by CLSI protocol based broth microdilution method; assay type: functional
Candida albicans [13] = test: Antifungal activity against Candida albicans strain CaR assessed as reduction in fungal growth incubated for 72 hrs by CLSI protocol based broth microdilution method; assay type: functional
Candida albicans [14] = test: Induction of apoptosis against Candida albicans ATCC SC5314 assessed as viable cells measured after 48 hrs by Annexin V-FITC/propidium iodide staining based flow cytometry (reference value: 80.78 %); assay type: functional
[15] = Toxicity in mouse infected with Candida albicans ATCC SC5314 assessed as effect on spleen at 4 mg/kg,ip administrated every 2 days for 14 days by hematoxylin-eosin staining based assay; assay type: organism-based; settings: in vivo, 336 h, time 14 day
Candida albicans [16] = test: Antifungal activity against Candida albicans strain 17 assessed as reduction in fungal growth incubated for 72 hrs by CLSI protocol based broth microdilution method; assay type: functional
[17] = Toxicity in mouse infected with Candida albicans ATCC SC5314 assessed as effect on heart at 4 mg/kg,ip administrated every 2 days for 14 days by hematoxylin-eosin staining based assay; assay type: organism-based; settings: in vivo, 336 h, time 14 day
[18] = Toxicity in mouse assessed as effect on blood urea nitrogen level; settings: in vivo
Candida albicans [19] = test: Inhibition of SE/CYP51 in Candida albicans ATCC SC5314 assessed as squalene level incubated for 48 hrs by LC/MS analysis; parameters: scale not given: the % may be the effect or the level left
Candida albicans [20] = test: Induction of apoptosis against Candida albicans ATCC SC5314 assessed as late apoptotic cells measured after 48 hrs by Annexin V-FITC/propidium iodide staining based flow cytometry (reference value: 0.71 %); assay type: functional
Candida albicans [21] = test: Antifungal activity against Candida albicans strain 632 assessed as reduction in fungal growth incubated for 72 hrs by CLSI protocol based broth microdilution method; assay type: functional
[22] = Toxicity in mouse assessed as effect on aspartate transaminase level; settings: in vivo
Candida albicans [23] = test: Inhibition of SE/CYP51 in Candida albicans ATCC SC5314 assessed as unknown sterol level incubated for 48 hrs by LC/MS analysis; parameters: scale not given: the % may be the effect or the level left
Candida albicans [24] = test: Inhibition of SE/CYP51 in Candida albicans ATCC SC5314 assessed as ergosterol level incubated for 48 hrs by LC/MS analysis; parameters: scale not given: the % may be the effect or the level left
Candida albicans [25] = test: Antifungal activity against Candida albicans ATCC SC5314 infected in mouse assessed as reduction on endothelial fungal infection at 4 mg/kg,ip administrated every 2 days for 14 days by hematoxylin-eosin staining based assay; assay type: functional, organism-based; settings: time 14.0 day
Candida albicans [26] = test: Antifungal activity against Candida albicans SC5314 assessed as reduction in fungal growth incubated for 72 hrs by CLSI protocol based broth microdilution method; assay type: functional
[27] = Toxicity in mouse infected with Candida albicans ATCC SC5314 assessed as effect on liver at 4 mg/kg,ip administrated every 2 days for 14 days by hematoxylin-eosin staining based assay; assay type: organism-based; settings: in vivo, 336 h, time 14 day
Candida albicans [28] = test: Induction of apoptosis against Candida albicans ATCC SC5314 assessed as necrotic cells measured after 48 hrs by Annexin V-FITC/propidium iodide staining based flow cytometry (reference value: 18.22 %); assay type: functional

Sequence of Lanosterol 14-alpha demethylase (P10613 whole entry): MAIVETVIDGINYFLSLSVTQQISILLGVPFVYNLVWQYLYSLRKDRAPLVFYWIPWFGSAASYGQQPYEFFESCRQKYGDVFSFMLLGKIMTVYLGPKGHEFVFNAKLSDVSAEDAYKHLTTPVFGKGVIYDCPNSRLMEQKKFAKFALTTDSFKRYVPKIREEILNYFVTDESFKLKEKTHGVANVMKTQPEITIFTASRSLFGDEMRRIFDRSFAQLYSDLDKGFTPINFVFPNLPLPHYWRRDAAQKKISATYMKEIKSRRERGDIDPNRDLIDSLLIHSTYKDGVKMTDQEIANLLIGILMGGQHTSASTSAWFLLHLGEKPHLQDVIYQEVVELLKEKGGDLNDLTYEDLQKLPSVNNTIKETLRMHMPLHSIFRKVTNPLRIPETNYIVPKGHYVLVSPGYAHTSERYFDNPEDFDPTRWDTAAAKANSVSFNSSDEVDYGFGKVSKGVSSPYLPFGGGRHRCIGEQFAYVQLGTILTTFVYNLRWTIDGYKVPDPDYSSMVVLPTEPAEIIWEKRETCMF

O=C(/C=C/c1ccc2ccccc2c1)NC(Cn1cncn1)C(=O)c1ccccc1 (stereo not drawn)
Activity (Candida albicans [1]): 0.36%
Activity [2]: Non-Toxic
MIC50 (Candida albicans [3]): 4 µg/mL (≈ 10.1 µM)
Activity (Mus musculus): Active
Activity (Candida albicans [4]): Active
Activity (Candida albicans [5]): 34.7%
MIC50 (Candida tropicalis): 0.25 µg/mL (≈ 0.631 µM)
Activity (Candida albicans [6]): 13.6%
IC50 [7]: 0.323 µM
Activity (Candida albicans [8]): Active
MIC50 (Aspergillus fumigatus): 2 µg/mL (≈ 5.04 µM)
Activity [9]: Non-Toxic
MIC50 (Candida albicans [10]): 4 µg/mL (≈ 10.1 µM)
IC50 [11]: 0.65 µM
Activity [12]: 96.5 IU/L
MIC50 (Pichia kudriavzevii): 0.5 µg/mL (≈ 1.26 µM)
MIC50 (Nakaseomyces glabratus): 0.125 µg/mL (≈ 0.315 µM)
MIC50 (Candida albicans [13]): 2 µg/mL (≈ 5.04 µM)
Activity (Candida albicans [14]): 54.66%
Activity [15]: Non-Toxic
MIC50 (Candida albicans [16]): 4 µg/mL (≈ 10.1 µM)
Activity [17]: Non-Toxic
Activity [18]: 6.8 mmol/L
Activity (Candida albicans [19]): 28.9%
Activity (Candida albicans [20]): 1.11%
MIC50 (Candida albicans [21]): 2 µg/mL (≈ 5.04 µM)
Activity [22]: 107.5 IU/L
Activity (Candida albicans [23]): 6.4%
Activity (Candida albicans [24]): 16.4%
Activity (Candida albicans [25]): Active
MIC50 (Candida albicans [26]): 0.125 µg/mL (≈ 0.315 µM)
Activity [27]: Non-Toxic
Activity (Candida albicans [28]): 43.87%

O=C(/C=C/c1ccc2ccccc2c1)NC(C(=O)NCc1cccnc1)c1ccccc1 (stereo not drawn)
MIC50 (Candida tropicalis): 2 µg/mL (≈ 4.74 µM)
MIC50 (Aspergillus fumigatus): > 8 µg/mL
MIC50 (Pichia kudriavzevii): 1 µg/mL (≈ 2.37 µM)
MIC50 (Nakaseomyces glabratus): 0.5 µg/mL (≈ 1.19 µM)
MIC50 (Candida albicans [26]): 2 µg/mL (≈ 4.74 µM)

O=C(NC(Cn1cncn1)c1ccccc1)c1ccc2ccccc2c1 (stereo not drawn)
MIC50 (Candida tropicalis): 0.5 µg/mL (≈ 1.46 µM)
MIC50 (Aspergillus fumigatus): 4 µg/mL (≈ 11.7 µM)
MIC50 (Pichia kudriavzevii): 0.5 µg/mL (≈ 1.46 µM)
MIC50 (Nakaseomyces glabratus): 1 µg/mL (≈ 2.92 µM)
MIC50 (Candida albicans [26]): 0.5 µg/mL (≈ 1.46 µM)

O=C(/C=C/c1ccc2ccccc2c1)NC(Cn1ccnc1)c1ccccc1 (stereo not drawn)
MIC50 (Candida tropicalis): 0.5 µg/mL (≈ 1.36 µM)
MIC50 (Aspergillus fumigatus): 4 µg/mL (≈ 10.9 µM)
MIC50 (Pichia kudriavzevii): 1 µg/mL (≈ 2.72 µM)
MIC50 (Nakaseomyces glabratus): 0.5 µg/mL (≈ 1.36 µM)
MIC50 (Candida albicans [26]): 0.5 µg/mL (≈ 1.36 µM)
